Where a name gives a salt, the structure may show the parent alone.
System: Asbestos-Exposed Mice
Assay: Asbestos-exposed mice: morphometric analysis of first alveolar duct bifurcations
Type: in vivo
Conditions: asbestos-exposed C57BL/6 mice, 30 days following exposure
Experimental: Asbestos Exposure: Eight week old C57BL/6 mice are exposed to 15 mg/m^3 of chrysotile asbestos in inhalation chambers for a period of 5 hours, for 3 consecutive days, as described previously in detail in our earlier publications (Lasky et al. Am. J. Respir. Crit. Care Med. (1998) 157:1652-7). This asbestos exposure induces fibroblast proliferation and a morphometrically characterized lesion at the alveolar duct bifurcations (Brody et al., Am Rev Respir Dis. (1981) 123:670-9). Sham-exposed (ambient air) animals are used as controls. The groups include: sham-exposed with vehicle; asbestos-exposed with vehicle; and asbestos exposed with COMPOUND I (imatinib mesylate). Five mice from each of these […] are sacrificed 30 days following exposure and used for determining the dimensions of the alveolar duct bifurcations. […]
Morphometric Analysis: H & E stained sections from exposed and control animals from the 30 day time point are masked. Bifurcation area is measured using an Olympus microscope with a video camera interfacing with a PC utilizing V150 imaging software (Fermin et al., J Anat. (1995) 186:469-81). The total area and perimeter of each of five first alveolar duct bifurcations is measured as previously described (Perdue et al., J. Histochem. Cytochem. (1994) 42:1061-70). […]

SMILES: Cc1ccc(NC(=O)c2ccc(CN3CCN(C)CC3)cc2)cc1Nc1nccc(-c2cccnc2)n1 [SALT I, 4[-(4-methyl-1-piperazin-1-ylmethyl)-N-[4-methyl-3-[[4-(3-pyridinyl)-2-pyrimidinyl]amino]phenyl]benzamide methanesulfonate]
- First alveolar duct area (100 mg COMPOUND I free base/kg i.p. once per day, from the day preceding exposure and for 14 days thereafter, group mean): 1875 square micrometers
- reduction of the size of the lesion (fibrotic scar at first alveolar duct bifurcations) (100 mg free base/kg i.p. once per day, P=0.02): 43%

Source: US20070082914A1, “4-(4-Methylpiperazin-1-ylmethyl)-n-[4-methyl-3-(4-pyridin-3-yl)pyrimidin-2-ylamino)phenyl]-benzamide for treating pulmonary fibrosis” (priority 2002, published 2007)
